Source: patent US20220177477A1 (Central China Normal University, priority 2019, published 2022)

Legend:
[1] = Drug metabolism study in rats, oral administration; details: rat
[2] = molecular target: T1, TRKB (Homo sapiens, UniProt Q16620); test: In vitro biochemical HTRF KinEASE kinase inhibition, TRKB; details: wild-type kinase, final ATP 2.56 μmol/L
T1 construct: purchased Carna Biosciences 08-187
Experimental: The material and the method are as follows: wild-type kinases such as TRKA, TRKB and TRKC, and mutant kinases such as TRKA-G595R, TRKA-G667C, TRKA-F589L, TRKC-G623R and TRKC-G696A, and are derived from Carna Biosciences 08-186, 08-187, 08-197; HTRF KinEASE TKkit (Cisbio 62TKO PEC); 384 well plates (Greiner corporation); ATP (Life technologies PV 3227), MgCl2 (sigma); PHERAstar FS Multifunctional microplate reader (BMG Co.); low speed centrifuge (StaiteXiangyi corporation); incubator (Binder company).
Preparing a compound working solution: the dispensed compounds were removed from the freezer prior to testing and diluted to 100× concentration with pure DMSO; then the compound was diluted to the desired concentration of 4× with deionized water;
Preparation of 1.33× enzyme buffer (enzyme buffer): 5× enzyme buffer (from HTRF kit) was diluted to 1.33× with deionized water and the corresponding ingredients were added at a final concentration of 1.33×: 1.33 mmol/L Dithiothreitol (DTT), 1.33 mmol/L MnCl2, 6.65 mmol/L MgCl2 and 39.9 nmol/L SEB;
Preparation of a kinase working solution: TRKA, TRKB and TRKC were diluted with 1.33× enzyme buffer to the required concentrations of 2× of 0.404 ng/μL, 0.304 ng/μL and 0.236 ng/μL, respectively;
Preparing a substrate working solution: a mixture of TK Substrate Blr diluted to the desired final concentration of 4× (from HTRF kit) and ATP (10 mM) with 1.33× enzyme buffer; the final ATP concentrations for TRKA, TRKB, and TRKC were: 3.727 μmol/L, 2.56 μmol/L and 2.526 μmol/L. The TK Substrate-biotin (from HTRF KinEASE TKkit) final concentrations were all: 0.2 μmol/L.
Preparing a detection working solution: 16.67 μmol/L of Streptavidin-XL665 (Streptavidin-XL 665) were diluted to the desired final concentration of 4× with HTRF test buffer and then mixed with an equal volume of Antibody-europium Cryptate (Antibody-Cryptate) (both from HTRF kits).
An enzyme reaction step: add 4 μL of kinase working solution to each well of a low volume 384 microwell plate along with 4 μL of 1.33× enzyme buffer as a Negative control (Negative); add 2 μl of compound working solution to the wells, while adding 2 μl of […] aqueous solution as a zero compound concentration control (i.e., Positive control, Positive); incubating at 25° C. for 5 min; add 2 μL of substrate working solution to the wells to start the enzymatic reaction, shake the reaction for 30 min at 37° C.
HTRF reagent detection step: adding […] to the hole to terminate the reaction; reacting for 1 h at 25° C.;
Reading of HTRF signal: the PHERAstar FS reading is adopted to detect signals, and the corresponding setting of the instrument is as follows:
For the raw data read out per well, the ratio=665 nm/620 nm;
Calculation of inhibition rate:
Calculation of IC50 values: with the logarithm of the compound concentration as abscissa and the inhibition as ordinate, a non-linear curve was fitted in GraphPad Prism 5: log (inhibitor) vs. response—Variable slope, and calculating the concentration of the compound to be detected, namely IC50, when the enzyme activity inhibition rate is 50%.

[3] = Drug metabolism study in rats, intravenous administration; details: rat, plasma, iv, 1 mg/kg
[4] = molecular target: T2, TRKA (Homo sapiens, UniProt P04629); test: In vitro biochemical HTRF KinEASE kinase inhibition, TRKA; details: wild-type kinase, final ATP 3.727 μmol/L; read-out: TRKA IC50
T2 construct: purchased Carna Biosciences 08-186
T2 sequence (P04629 33-796): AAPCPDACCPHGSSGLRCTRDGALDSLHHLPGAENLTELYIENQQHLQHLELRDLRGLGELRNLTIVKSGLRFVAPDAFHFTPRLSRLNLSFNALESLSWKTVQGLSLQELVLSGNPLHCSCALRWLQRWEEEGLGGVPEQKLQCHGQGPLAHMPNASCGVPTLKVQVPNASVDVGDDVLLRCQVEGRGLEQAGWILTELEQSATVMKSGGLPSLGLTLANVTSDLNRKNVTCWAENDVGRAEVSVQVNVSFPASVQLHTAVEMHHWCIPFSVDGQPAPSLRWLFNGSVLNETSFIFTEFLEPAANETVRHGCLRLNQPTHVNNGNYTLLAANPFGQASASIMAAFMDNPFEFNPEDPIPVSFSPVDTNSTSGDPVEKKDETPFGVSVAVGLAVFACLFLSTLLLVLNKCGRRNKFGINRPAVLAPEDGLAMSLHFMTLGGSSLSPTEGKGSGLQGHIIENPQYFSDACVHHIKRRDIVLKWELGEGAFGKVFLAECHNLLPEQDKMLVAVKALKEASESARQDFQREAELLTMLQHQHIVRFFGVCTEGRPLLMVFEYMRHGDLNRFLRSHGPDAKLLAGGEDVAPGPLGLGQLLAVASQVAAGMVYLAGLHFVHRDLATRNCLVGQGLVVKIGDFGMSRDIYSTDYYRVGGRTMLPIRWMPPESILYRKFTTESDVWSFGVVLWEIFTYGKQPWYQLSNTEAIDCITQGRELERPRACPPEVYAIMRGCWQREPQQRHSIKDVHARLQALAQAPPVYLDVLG

[5] = molecular target: T3, TRKC (Homo sapiens, UniProt Q16288); test: In vitro biochemical HTRF KinEASE kinase inhibition, TRKC; details: wild-type kinase, final ATP 2.526 μmol/L
T3 construct: purchased Carna Biosciences 08-197
T3 sequence (Q16288 32-825 isoform Q16288-3 limits assumed): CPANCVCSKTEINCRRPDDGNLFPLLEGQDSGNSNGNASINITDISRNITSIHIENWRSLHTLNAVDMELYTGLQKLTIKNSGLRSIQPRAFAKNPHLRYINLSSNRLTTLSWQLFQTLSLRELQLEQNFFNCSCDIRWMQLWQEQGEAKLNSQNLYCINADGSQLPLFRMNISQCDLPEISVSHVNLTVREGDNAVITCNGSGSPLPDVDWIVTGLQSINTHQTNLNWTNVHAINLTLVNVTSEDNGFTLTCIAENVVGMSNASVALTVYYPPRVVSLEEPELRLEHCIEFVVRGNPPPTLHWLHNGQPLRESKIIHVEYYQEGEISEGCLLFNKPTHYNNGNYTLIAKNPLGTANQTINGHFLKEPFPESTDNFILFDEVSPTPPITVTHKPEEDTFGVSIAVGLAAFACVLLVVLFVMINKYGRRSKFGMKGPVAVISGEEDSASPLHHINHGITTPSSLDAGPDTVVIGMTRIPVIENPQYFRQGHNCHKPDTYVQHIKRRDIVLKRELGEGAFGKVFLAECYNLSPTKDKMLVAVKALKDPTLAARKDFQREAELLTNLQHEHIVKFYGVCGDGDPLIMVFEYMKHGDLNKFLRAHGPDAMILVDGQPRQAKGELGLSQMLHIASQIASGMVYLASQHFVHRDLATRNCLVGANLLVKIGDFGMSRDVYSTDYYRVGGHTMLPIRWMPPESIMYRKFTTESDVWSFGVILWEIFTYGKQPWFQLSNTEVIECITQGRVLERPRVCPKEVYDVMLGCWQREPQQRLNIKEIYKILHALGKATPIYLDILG

T1 sequence (Q16620 32-822): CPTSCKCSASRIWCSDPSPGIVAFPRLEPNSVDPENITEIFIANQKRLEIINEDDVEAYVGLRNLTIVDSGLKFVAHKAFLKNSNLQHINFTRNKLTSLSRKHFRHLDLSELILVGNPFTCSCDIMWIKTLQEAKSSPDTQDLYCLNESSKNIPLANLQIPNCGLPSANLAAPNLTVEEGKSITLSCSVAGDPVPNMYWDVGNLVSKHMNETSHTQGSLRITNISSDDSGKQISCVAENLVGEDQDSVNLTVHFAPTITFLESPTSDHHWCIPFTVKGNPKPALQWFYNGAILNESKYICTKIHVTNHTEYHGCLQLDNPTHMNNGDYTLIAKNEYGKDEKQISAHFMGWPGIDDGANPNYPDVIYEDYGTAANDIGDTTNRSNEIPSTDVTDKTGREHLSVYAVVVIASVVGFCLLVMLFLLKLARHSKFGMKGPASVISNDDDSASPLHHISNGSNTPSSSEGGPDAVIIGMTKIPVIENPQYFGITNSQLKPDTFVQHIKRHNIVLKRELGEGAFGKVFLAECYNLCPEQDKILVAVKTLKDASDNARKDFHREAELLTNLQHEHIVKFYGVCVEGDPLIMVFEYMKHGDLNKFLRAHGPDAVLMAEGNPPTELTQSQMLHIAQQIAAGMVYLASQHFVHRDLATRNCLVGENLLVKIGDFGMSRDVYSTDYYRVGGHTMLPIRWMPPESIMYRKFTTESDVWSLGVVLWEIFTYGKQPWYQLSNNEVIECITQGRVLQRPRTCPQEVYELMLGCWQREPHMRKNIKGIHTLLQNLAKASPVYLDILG

| Compound | IC50 [2] | IC50 [4] | IC50 [5] | also measured |
| --- | --- | --- | --- | --- |
| CC(Nc1ccn2ncc(-c3cnn(C4CC4)c3)c2n1)c1cc(F)ccc1OCC(F)F (stereo not drawn) [Compound 4, 3-(1-cyclopropyl-1H-pyrazol-4-yl)-N-(1-(2-(2,2-difluoroethoxy)-5-fluorophenyl)ethyl) pyrazolo [1,5-a] pyrimidin-5-amine] | 15.9 nM | 12.2 nM | 24.9 nM | – |
| CC(Nc1ccn2ncc(-c3cnn(C4CCCC4O)c3)c2n1)c1cc(F)ccc1OCC(F)F (stereo not drawn) [Compound 8, 2-(4-(5-((1-(2-(2,2-difluoroethoxy)-5-fluorophenyl)ethyl)amino)pyrazolo [1,5-a]pyrimidin-3-yl)-1H-pyrazol-1-yl) cyclopentan-1-ol] | 5.7 nM | 5.4 nM | 9.8 nM | – |
| CC(Nc1ccn2ncc(-c3cn[nH]c3)c2n1)c1ccccc1OCC(F)F (stereo not drawn) [Compound 16, N-(1-(2-(2,2-difluoroethoxy)phenyl)ethyl)-3-(1H-pyrazol-4-yl) pyrazolo [1,5-a] pyrimidin-5-amine] | 8.6 nM | 8.5 nM | 12.2 nM | – |
| CC(Nc1ccn2ncc(-c3cnn(C)c3)c2n1)c1cc(F)ccc1OCC1CC1 (stereo not drawn) [Compound a26-38, N-(1-(2-(cyclopropylmethoxy)-5-fluorophenyl)ethyl)-3-(1-methyl-1H-pyrazol-4-yl) pyrazolo [1,5-a] pyrimidin-5-amine] | 6.7 nM | 11.5 nM | 9.9 nM | – |
| CC(Nc1ccn2ncc(-c3cnn(C)c3)c2n1)c1cc(F)ccc1OC1CCOC1 (stereo not drawn) [Compound a27-41, N-(1-(5-fluoro-2-((tetrahydrofuran-3-yl)oxy)phenyl)ethyl)-3-(1-methyl-1H-pyrazol-4-yl) pyrazolo [1,5-a] pyrimidin-5-amine] | 5.8 nM | 7.7 nM | 7.1 nM | – |
| CC(Nc1ccn2ncc(-c3cn[nH]c3)c2n1)c1cc(F)ccc1OCF (stereo not drawn) [Compound b3-6, N-(1-(5-fluoro-2-(fluoromethoxy)phenyl)ethyl)-3-(1H-pyrazol-4-yl) pyrazolo [1,5-a] pyrimidin-5-amine] | 13 nM | 18.1 nM | 15.5 nM | – |
| CCCOc1ccc(F)cc1C(C)Nc1ccn2ncc(-c3cn[nH]c3)c2n1 (stereo not drawn) [Compound b9-33, N-(1-(5-fluoro-2-propoxyphenyl)ethyl)-3-(1H-pyrazol-4-yl) pyrazolo [1,5-a] pyrimidin-5-amine] | 5.5 nM | 6 nM | 12.2 nM | – |
| CC(Nc1ccn2ncc(-c3cn[nH]c3)c2n1)c1cc(F)ccc1OCCCF (stereo not drawn) [Compound b10-34, N-(1-(5-fluoro-2-(3-fluoropropoxy)phenyl)ethyl)-3-(1H-pyrazol-4-yl) pyrazolo [1,5-a] pyrimidin-5-amine] | 9.8 nM | 9.7 nM | 14.1 nM | – |
| CC(Nc1ccn2ncc(-c3cn[nH]c3)c2n1)c1cc(F)ccc1OC1CCCC1 (stereo not drawn) [Compound b13-39, N-(1-(2-(cyclopentyloxy)-5-fluorophenyl)ethyl)-3-(1H-pyrazol-4-yl) pyrazolo [1,5-a] pyrimidin-5-amine] | 5.9 nM | 7.9 nM | 8 nM | – |
| CC(Nc1ccn2ncc(-c3cn[nH]c3)c2n1)c1cc(F)ccc1OC1CCOC1 (stereo not drawn) [Compound b14-40, N-(1-(5-fluoro-2-((tetrahydrofuran-3-yl)oxy)phenyl)ethyl)-3-(1H-pyrazol-4-yl) pyrazolo [1,5-a] pyrimidin-5-amine] | 8.6 nM | 4.51 nM | 11.7 nM | – |

These reach a lower IC50 [2]. Values come first.

| IC50 [2] | IC50 [4] | IC50 [5] | Compound | also measured |
| --- | --- | --- | --- | --- |
| 5.1 nM | 10.5 nM | 8.5 nM | CC(Nc1ccn2ncc(-c3cnn(C4CCCC4O)c3)c2n1)c1cc(F)ccc1O (stereo not drawn) [Compound a2-3, 4-fluoro-2-(1-((3-(1-(2-hydroxycyclopentyl)-1H-pyrazol-4-yl)pyrazolo [1,5-a]pyrimidin-5-yl)amino)ethyl) phenol] | – |
| 4.8 nM | 5.8 nM | 7.1 nM | CC(Nc1ccn2ncc(-c3cnn(C(F)F)c3)c2n1)c1cc(F)ccc1OCC(F)F (stereo not drawn) [Compound 3, N-(1-(2-(2,2-difluoroethoxy)-5-fluorophenyl)ethyl)-3-(1-(difluoromethyl)-1H-pyrazol-4-yl) pyrazolo [1,5-a] pyrimidin-5-amine] | – |
| 4.3 nM | 8.4 nM | 8.4 nM | CCOc1ccc(F)cc1C(C)Nc1ccn2ncc(-c3cn[nH]c3)c2n1 (stereo not drawn) [Compound b5-11, N-(1-(2-ethoxy-5-fluorophenyl)ethyl)-3-(1H-pyrazol-4-yl) pyrazolo [1,5-a]pyrimidin-5-amine] | – |
| 4.2 nM | 11.3 nM | 6.7 nM | CC(Nc1ccn2ncc(-c3cn[nH]c3)c2n1)c1cc(F)cc(F)c1OCC(F)F (stereo not drawn) [Compound 14, N-(1-(2-(2,2-difluoroethoxy)-3,5-difluorophenyl)ethyl)-3-(1H-pyrazol-4-yl) pyrazolo [1,5-a] pyrimidin-5-amine] | – |
| 3.5 nM | 3.3 nM | 4.7 nM | CC(=O)n1cc(-c2cnn3ccc(N[C@H](C)c4cc(F)ccc4OCC(F)F)nc23)cn1 [Compound 12, (R)-1-(4-(5-((1-(2-(2,2-difluoroethoxy)-5-fluorophenyl)ethyl)amino)pyrazolo [1,5-a]pyrimidin-3-yl)-1H-pyrazol-1-yl) ethanone] | – |
| 3.1 nM | 3.37 nM | 3.8 nM | CC(Nc1ccn2ncc(-c3cn[nH]c3)c2n1)c1cc(F)ccc1OC(F)F (stereo not drawn) [Compound b4-7, N-(1-(2-(difluoromethoxy)-5-fluorophenyl)ethyl)-3-(1H-pyrazol-4-yl) pyrazolo [1,5-a] pyrimidin-5-amine] | – |
| 2.8 nM | – | – | C[C@@H](Nc1ccn2ncc(-c3cnn(C)c3)c2n1)c1cc(F)ccc1OCC(F)F [Compound 2, (R)-N-(1-(2-(2,2-difluoroethoxy)-5-fluorophenyl)ethyl)-3-(1-methyl-1H-pyrazol-4-yl) pyrazolo [1,5-a] pyrimidin-5-amine] | CL ([1]; oral 5 mg/kg): 10.12 L/h/kg; Vz ([1]; oral 5 mg/kg): 37.61 L/kg; AUC(0-t) ([1]; plasma, po, 5 mg/kg): 533 ng·h/mL; Cmax ([1]; plasma, po, 5 mg/kg): 150 ng/mL; MRT last ([1]; plasma, po, 5 mg/kg): 2.62 h; Tmax ([1]; plasma, po, 5 mg/kg): 40.2 min; bioavailability ([1]; plasma, po, 5 mg/kg): 30.2%; half-life ([1]; plasma, po, 5 mg/kg): 171 min; AUC(0-t) [3]: 353 ng·h/mL; Cmax [3]: 298 ng/mL; MRT last [3]: 1.49 h; Vd [3]: 6.8 L/kg; clearance [3]: 46 mL/min/kg; half-life [3]: 103 min |
| 2.7 nM | 3.8 nM | 5.5 nM | C[C@@H](Nc1ccn2ncc(-c3cnn(C4CCCCO4)c3)c2n1)c1cc(F)ccc1OCC(F)F (stereo partly drawn) [Compound 10, N-((R)-1-(2-(2,2-difluoroethoxy)-5-fluorophenyl)ethyl)-3-(1-(tetrahydro-2H-pyran-2-yl)-1H-pyrazol-4-yl) pyrazolo [1,5-a] pyrimidin-5-amine] | – |
| 1.5 nM | 2.3 nM | 15.1 nM | C[C@@H](Nc1ccn2ncc(-c3cnn(C)c3)c2n1)c1cc(F)ccc1OCCF [Compound a10-17, (R)-N-(1-(5-fluoro-2-(2-fluoroethoxy)phenyl)ethyl)-3-(1-methyl-1H-pyrazol-4-yl) pyrazolo [1,5-a] pyrimidin-5-amine] | – |
| 1.3 nM | 2.4 nM | 2.4 nM | C[C@@H](Nc1ccn2ncc(-c3cnn(CC#N)c3)c2n1)c1cc(F)ccc1OCC(F)F [Compound 7] | – |
